In paper PMC8009417, “Selective killing of homologous recombination-deficient cancer cell lines by inhibitors of the RPA:RAD52 protein-protein interaction” (PLoS ONE, 2021):

Experiments:
[1] = tested on: T1, RPA:RAD52 PPI in U2OS cells; experiment: Size exclusion chromatography and co-immunoprecipitation of RAD52 with RPA from treated cells; type: cell-based; conditions: 3 nM, 24 hours, preliminary experiments
T1 construct: endogenous in cells; host or cells: U2OS
Procedure: (A) RAD52 was co-immunoprecipitated with RPA in the fractions 5, 8, and 10 in the control experiment. The elution positions of the molecular weight standards, thyroglobulin (669 kDa), apoferritin (443 kDa), beta-amylase (200 kDa), and bovine serum albumin (66 kDa), are indicated below the western blot.
U2OS cells (10^6 cells) were seeded in a 100 mm dish and grown overnight. The cells were treated with the indicated concentrations of mitoxantrone (MTX) for 24 hours. The cell lysate was prepared in 100 μl of lysis buffer (PBS with 0.5% NP40, 0.5% Triton X100, 1 mM DTT, protease and phosphatase inhibitors, and 10% glycerol). After mixing with 100 μl cold PBS, the lysate was incubated with 100 μl of DEAE sepharose (GE Life Sciences) for 2 hours at 4°C with rotation. An unbound fraction from DEAE sepharose (~200 μl) was diluted with 200 μl of PBS and half of the mixture was fractionated with Superdex200 (GE Life Sciences) using PBS as elution buffer. Each fraction was incubated with anti-RPA (p32) antibody conjugated with biotin (NeoMarkers, MS-691-B0) at 4°C overnight, then incubated with Streptavidin-magnetic beads (Promega #Z5481) for one hour at 4°C with rotation. […] RAD52 and RPA (p32) were detected by western blotting with anti-RAD52 antibody (LS-C42570, LSBio) and anti-RPA2 antibody (A300-244A, Bethyl Laboratories), respectively.

[2] = tested on: homologous recombination (HR) in U2OS-DR cells; experiment: Cell-based DSB repair assay, HR (DR-GFP reporter, FACS); conditions: 4 nM, 2 h pre-treatment, three days
Procedure: (A) The effect of mitoxantrone (MX) on SSA and HR were studied with cell-based DSB repair assays. U2OS-SA and U2OS-DR cells were pre-treated with mitoxantrone for two hours before transfection of the SceI-expression plasmid. Then cells were grown in the presence of mitoxantrone for three days. DSB repair activities were determined by (B) FACS analysis. […] U2OS-SA cells were pre-treated with indicated concentrations of mitoxantrone for two hours, before I-SceI-expression vector transfection. After 72 hours incubation, the cells were harvested, and lysates were prepared. Lysate from each treatment was analyzed by 12% SDS-PAGE and the expression levels of I-SceI was determined by the western blot using anti-HA antibody. The p70 of RPA was used as a loading control. Ratios of I-SceI to p70 was obtained with ImageJ and are shown at the bottom of the image. C: control experiment without the addition of mitoxantrone. (D, E) Analysis of DSB repair activiies by western blots. […] At least three independent experiments were performed. Error bars represent standard deviations.

With `O=C1c2c(O)ccc(O)c2C(=O)c2c(NCCNCCO)ccc(NCCNCCO)c21` [Mitoxantrone, mitoxantrone] the “Effect on RPA:RAD52 PPI in cells (co-immunoprecipitation of RAD52 with RPA)” value [1] was “disrupts the RPA:RAD52 PPI in cells” and the HR suppression [2] was 40% ± 7%.
